{"source": "patent US20190125704A1", "about": "“PAIN RELIEF COMPOSITION” (priority 2016, published 2019)", "system": "TRPV ion channels", "experiment": "TRPV ion channel activity: 2-APB-induced intracellular calcium change in f11 nociceptive sensory cells (Fluo-4-AM)", "assay_type": "cell-based, white rats", "settings": "f11 cell lines pre-treated with the compound for 24 hours, then 2-APB", "procedure": "To investigate the activity of the compound of Formula 1 isolated in Example 1, pain relief effects were evaluated. The pain relief was confirmed by identifying intracellular calcium levels and signaling pathways.\nAfter f11 nociceptive sensory cell lines in white rats incubated with the compound of Formula 1 to 50% confluence for 24 hours were pretreated, TRPV ion channel activities were measured. The f11 cell lines were treated with 2-APB (2-aminoethoxydiphenyl borate) as a pre-activator for TRPV ion channels, and intracellular calcium changes, which are triggered in response to the 2-APB treatment, were evaluated using a Fluo-4-AM fluorescent dye on a real time basis.", "note": "Values joined by “and” are separate entries in the source; they are usually repeats but may differ in a detail not shown here. Equal entries are not always repeated.", "data": [{"smiles": "CC(C)c1ccc2c(c1)C=C[C@H]1[C@](C)(C(=O)O)CCC[C@]21C", "note": "[Formula 1, abieta-6,8,11,13-tetraaen-18-oic acid]", "values": [{"measurement": "increase in the intracellular calcium level induced by 2-APB", "setting": "Fluo-4-AM fluorescent dye, real time", "result": "strongly inhibited"}, {"measurement": "intracellular calcium level after 2-APB treatment (tabulated data of FIG. 8, individual values)", "setting": "Fluo-4-AM, compared with untreated control group", "result": "1.1293 and 1.1714 and 1.1656 and 1.434 and 1.8663 and 1.3893 and 1.1031 and 1.2503 and 1.4131 and 1.3008 and 1.2251 and 1.1536 and 1.125 and 1.1572"}]}]}
